Data on one compound can be found in patent publication US20250009856A1, “METHODS FOR TREATING RESPIRATORY DISEASES” (MUCPharm Pty Ltd, priority 2021, published 2025).

Where “and” joins values, the source holds several entries; their conditions need not be identical. Equal values may be shown once.

Data set [1] is described as follows: Particle size distribution of aerosols by laser diffraction, Pari LC Sprint nebulizer. It is filed as physicochemical. Particulars: mean. How it is done:
The particle size distributions (PSD) of 5 formulations containing bromelain and acetylcysteine at different concentrations were determined. The formulations were aerosolized using a PARI TurboBOY SX compressor, combined with the Pari LC Sprint nebulizer (PARI GmbH, USA). The nebulizer was connected to a USP induction port (throat), and particle size was measured at flow rate of 15 L/min in Spraytec particle sizer (Malvern Instruments, Malvern, UK). Measurements were performed in triplicate. Results are expressed as D10, D50 and D90, indicating the particle diameter at 10, 50 and 90% in the cumulative distribution.
The formulations were prepared in saline (0.9% w/v) and kept at −20° C. prior to analysis. The formulations tested were: • 1. Control: Saline (sodium chloride 0.9% w/v) • 2. Low Concentration of Ac (8 mg/mL) • 3. High Concentration of Ac (60 mg/mL) • 4. Brom at 50 μg/mL • 5. Combination 1: Low Ac (8 mg/mL)+Brom (50 μg/mL) • 6. Combination 2: High Ac (60 mg/mL)+Brom (50 μg/mL)

The nature of data set [2]: Dynamic viscosity (capillary tube) after aerosol treatment. On the set-up: species or system human. Particulars: SS; for Dynamic viscosity (γ), After: before 1.748 ± 0.006. On the procedure: Six grams of soft PMP mucin was homogenised using a shredder with phosphate buffer saline (PBS) (3.0 ml) with sonification and vortexed until a homogenous mixture was formed, with incubation at 37° C. to remove air bubbles and after which viscosity was adjusted (further dilutions with PBS). The pH was adjusted to 7.0 using either 1.0 M NaOH or 0.1 N Hydrochloric acid. Dynamic viscosity (Y) of sputum was measured using the capillary tube method as outlined in […]. and G. Castellano, Determination of the kinematic viscosity by the liquid rise in a capillary tube. […] Ensino de Física, 2013. 35. A similar investigation as above was carried out to determine a comparative dynamic viscosity and pipette flow time for PMP mucin simulated sputa (SS). A similar treatment as in the experiment described above for NAC was carried out using Bromelain (125 and 250 μg/ml) in PBS (pH.7.0) along with control using PBS (pH.7.0). Both dynamic viscosity and pipette flow time was measured as outlined earlier for both artificial and PMP simulated sputa models. Using a combination of NAC (20 mg/ml) with either 125 or 250 μg/ml Bromelain in PBS (pH.7.0), a similar investigation was carried out as outlined earlier and measurements were made for both artificial and simulated sputa models. D=(TREATED)-(UNTREATED/(UNTREATED)×100.

Data set [3] can be described thus: Pipette flow speed after aerosol treatment. The conditions noted are these: AS; for Pipette flow speed (€), After: before 0.005 ± 0.001. How it is done: Artificial sputum was prepared following protocol as detailed by […] et al (Kirchner, S., et al., Use of artificial sputum medium to test antibiotic efficacy against Pseudomonas aeruginosa in conditions more relevant to the cystic fibrosis lung. Journal of visualized experiments: JOVE, 2012 (64)). Briefly 250 mg of porcine mucin, 200 mg of sperm DNA, 295 mg of diethylene triamine pentaacetic acid (DPTA), 25 mg sodium chloride, 110 mg potassium chloride, 140 mg Tris base were mixed in a volume of 45 ml of distilled water and pH adjusted to 7.0 using Trisbase. The volume of the solution was then adjusted to 50 ml. Further dilutions were then carried out to adjust viscosity as desired. Using a 0.5 ml glass pipette fixed at an angle of 60°, 0.5 ml of sample at 25° C. (ambient room temperature) was sucked up the pipette and the time taken to empty 0.3 ml of the sample was timed in sec. Pipette flow time (€) was calculated as follows: € (ml/sec)=0.3 ml/Time to empty 0.3 ml (sec) Artificial sputa (AS) were prepared as detailed above, and 1.5 ml of artificial sputum was carefully emptied into an endotracheal tube (in triplicates). A volume of 6.0 ml of NAC 10 mg/ml in PBS (pH.7.0) in triplicate was aerosolised using a nebulizer and passed over the sputum samples in the endotracheal tubes kept at 37° C. in a water bath. Similarly, the experiments were repeated using NAC 20 mg/ml in PBS (pH.7.0). The controls only received PBS (pH 7.0). The aerosol delivery time to empty 6.0 ml for each treatment was 25 min. The dynamic viscosity of the sputa was measured before and after using the capillary tube method, whilst the pipette flow time was also measured as described earlier using a 0.5 ml glass pipette. Samples were equilibrated to 25° C. before measurement A similar treatment as in the experiment described above for NAC was carried out using Bromelain (125 and 250 μg/ml) in PBS (pH.7.0) along with control using PBS (pH.7.0). Both dynamic viscosity and pipette flow time was measured as outlined earlier for both artificial and PMP simulated sputa models. Using a combination of NAC (20 mg/ml) with either 125 or 250 μg/ml Bromelain in PBS (pH.7.0), a similar investigation was carried out as outlined earlier and measurements were made for both artificial and simulated sputa models. D=(TREATED)-(UNTREATED/(UNTREATED)×100.

Data set [4] in a line: Dynamic viscosity after mixing with BromAc, DNase and combinations. The conditions noted are these: agent without DNASE: BR(25 ug/ml), NAC(20 mg/ml), or BR(250 ug/ml) + NAC(20 ug/ml); 1 hour, 37 deg C; Cont(PBS) 2.36. On the procedure: Artificial sputa was prepared following methodology with ingredients as in earlier experiments. To 1.5 ml of artificial sputa in a vial was added 0.5 ml of reagent containing the required bromelain, NAC, DNase and their combinations. Control vials included 0.5 ml of PBS only. The mixture was vortex mixed and incubated in a shaker water bath at 37 deg C. At the end of 1 hour, the samples were retrieved, vortex mixed and equilibrated to ambient room temperature before measuring dynamic viscosity and pipette flow.
Dynamic viscosity was determined using the capillary tube method as in earlier experiments, whilst the pipette flow was evaluated using a 0.5 ml pipette inclined at 60 deg angle. The pipette flow was calculated as shown below.

Another data set relates to sheep lungs. Briefly: Ventilated sheep lung model, endotracheal tube plugged with PMP mucin. The conditions noted are these: nebulised twice over 60 minutes; saline showed slight drop.
A further data set concerns SPF rabbits. Briefly: Tolerability study of inhaled BromAc in rabbit model. Particulars: Ac 20 mg inhaled; 48 h.
A short description of data set [5]: Bromelain and acetylcysteine in plasma (ELISA), rabbit tolerability study. Particulars: 4, 6, 24 and 48 h post-inhalation of 0.1 or 0.25 mg bromelain alone or in combination with acetylcysteine.

For `CC(=O)N[C@@H](CS)C(=O)O` [NAC, N-acetylcysteine], in data set [1] (NAC 8 mg/mL in saline), the D10 amounted to 1.19 µm, the D50 is listed as 3.26 μm and the D90 stood at 8.23c. In data set [1] (NAC 60 mg/mL in saline), the D10 was 1.12 µm, the D50 is reported as 2.87b μm and the D90 is 7.47 µm. Besides, in data set [2] (aerosol NAC 10 mg/ml), the “D (%), decrease of dynamic viscosity (γ)” value was 16% and 16 ↓ %; the “Dynamic viscosity (γ), After” value is reported as 1.467 ± 0.011 cSt. Moreover, in data set [2] (aerosol NAC 20 mg/ml), the “D (%), decrease of dynamic viscosity (γ)” value was 17% and 17 ↓ %; the “Dynamic viscosity (γ), After” value amounted to 1.453 ± 0.055 cSt. In addition, in data set [3] (aerosol NAC 10 mg/ml), the “D (%), increase of pipette flow speed (€)” value is 28% and 28 ↑ %; the “Pipette flow speed (€), After” value turned out to be 0.0064 ± 0.003 mL/s. In data set [3] (aerosol NAC 20 mg/ml), the “D (%), increase of pipette flow speed (€)” value is 40% and 40 ↑ %; the “Pipette flow speed (€), After” value was 0.007 ± 0.001 mL/s. Also, the “Dynamic viscosity (¥)” value in data set [4] was 1.640 cSt. For the same compound, the “Minute volume (MV) over 60 minutes” value in the data set on sheep lungs is given as “substantial rise in MV”. Further, in the data set on SPF rabbits, the “Incident: Broncho-interstitial pneumonia, multifocal, mild” value was 1 out of 4 and the “Incident: Broncho-interstitial pneumonia, multifocal, mild, granulomatous” value is given as 3 out of 4. In data set [5], the “detection in plasma (ELISA)” value is recorded as “not detected”.
